{"source": "the NIST ThermoML archive (doi:10.1021/je9005097)", "key": {"[1]": {"conditions": "Crystal; DTA"}, "[2]": {"assay": "Molar enthalpy of transition or fusion", "conditions": "Crystal; DSC"}}, "note": "± gives the expanded uncertainty stated by the source."}
{"smiles": "Oc1cc(O)c2cc1Cc1cc(c(O)cc1O)Cc1cc(c(O)cc1O)Cc1cc(c(O)cc1O)C2", "values": [{"measurement": "Normal melting temperature", "setting": "[1]", "result": "305.5 ± 1", "unit": "°C"}, {"measurement": "Molar enthalpy of transition or fusion", "setting": "[2]", "result": "9.13 ± 0.263", "unit": "kcal/mol"}]}
